Experimental data as given in BigSolDB 2.1.

CC(=O)Nc1ccc(O)cc1
solubility (mole fraction) (in transcutol, 298.15 K): 0.111 | solubility (mole fraction) (in transcutol, 303.15 K): 0.118 | solubility (mole fraction) (in transcutol, 308.15 K): 0.126 | solubility (mole fraction) (in transcutol, 313.15 K): 0.134 | solubility (mole fraction) (in transcutol, 318.15 K): 0.144 | solubility (mole fraction) (in transcutol, 323.15 K): 0.153 | solubility (mole fraction) (in transcutol, 328.15 K): 0.166 | solubility (mole fraction) (in transcutol, 333.15 K): 0.178 | solubility (mole fraction) (in water, 298.15 K): 0.0016 | solubility (mole fraction) (in water, 303.15 K): 0.0019 | solubility (mole fraction) (in water, 308.15 K): 0.0023 | solubility (mole fraction) (in water, 313.15 K): 0.0027 | solubility (mole fraction) (in water, 318.15 K): 0.0033 | solubility (mole fraction) (in water, 323.15 K): 0.004 | solubility (mole fraction) (in water, 328.15 K): 0.0047 | solubility (mole fraction) (in water, 333.15 K): 0.0055
